This passage reports Ki results from patent US10160762B2, “6-alkyl dihydropyrazolopyrimidinone compounds as PDE2 inhibitors” (Merck Sharp & Dohme Corp., priority 2015, dated 2018).

This assay has as its target T1, human PDE2A1 (Homo sapiens, UniProt O00408).
T1 construct: GST; purchased BPS Bioscience (San Diego, Calif.) 60020; host or cells: insect cells
Description: IMAP FP PDE assay, human PDE2A1. The format is biochemical. The settings on record: Lab B; read-out: Human PDE2 Ki (nM) Lab B. As to the method:
Selectivity for PDE2, as compared to other PDE families, was assessed using the IMAP® technology. Human PDE10A2 enzyme was prepared from cytosolic fractions of transiently transfected HEK cells. All other PDE's were GST Tag human enzyme expressed in insect cells and were obtained from BPS Bioscience (San Diego, Calif.): PDE1A (Cat#60010), human PDE2A1 (Cat#60020), PDE3A (Cat#60030), PDE4A1A (Cat#60040), PDE5A1 (Cat#60050), PDE6C (Cat#60060), PDE7A (Cat#60070), PDE8A1 (Cat#60080), PDE9A2 (Cat#60090), PDE11A4 (Cat#60110).
Assays for PDE 1 through 11 were performed in parallel at room temperature in 384-well microtiter plates with an incubation volume of 20.2 μL. Solutions of test compounds were prepared in DMSO and serially diluted with DMSO to yield 30 μL of each of ten solutions differing by 3-fold in concentration, at 32 serial dilutions per plate. […] A Labcyte POD 810 (Labcyte, Sunnyvale, Calif.) was used to dispense 200 nL from each well of the titration plate to make eleven copies of the assay plate for each titration, one copy for each PDE enzyme. A solution of each enzyme (dilution from aliquots, sufficient to produce 20% substrate conversion) and a separate solution of FAM-labeled cAMP or FAM-labeled cGMP from Molecular Devices (Sunnyvale, Calif., product # R7506 or cGMP#R7508), at a final concentration of 50 nM were made in the assay buffer (10 mM Tris HCl, pH 7.2, 10 mM MgCl2, 0.05% NaN3 0.01% Tween-20, and 1 mM DTT). Note that the substrate for PDE2 is 50 nM FAM cAMP containing 1000 nM of cGMP. The enzyme and the substrate were then added to the assay plates in two consecutive additions of 10 μL and then shaken to mix. The reaction was allowed to proceed at room temperature for 60 minutes. A binding solution was then made from the kit components, comprised of 80% Solution A, 20% Solution B and binding reagent at a volume of 1/600 the total binding solution. The enzymatic reaction was stopped by addition of 60 μL of the binding solution to each well of the assay plate. The plates were sealed and shaken for 10 seconds. The plates were incubated at room temperature for one hour, then the parallel and perpendicular fluorescence was measured using a Tecan Genios Pro plate reader (Tecan, Switzerland). The apparent inhibition constants for the compounds against all 11 PDE's was determined from the parallel and perpendicular fluorescent readings as described for PDE10 FP assay using the following apparent KM values for each enzyme and substrate combination: PDE1A (FAM cGMP) 70 nM, human PDE2A1 (FAM cAMP) 10,000 nM, PDE3A (FAM cAMP) 50 nM, PDE4A1A (FAM cAMP) 1500 nM, PDE5A1 (FAM cGMP) 400 nM, PDE6C (FAM cGMP) 700 nM, PDE7A (FAM cAMP) 150 nM, PDE8A1 (FAM cAMP) 50 nM, PDE9A2 (FAM cGMP) 60 nM, PDE10A2 (FAM cAMP) 150 nM, PDE11A4 (FAM cAMP) 1000 nM. The intrinsic PDE2 inhibitory activity of a compound which may be used in accordance with the present invention may be determined by these assays.

T1 sequence (O00408 1-920 isoform O00408-2): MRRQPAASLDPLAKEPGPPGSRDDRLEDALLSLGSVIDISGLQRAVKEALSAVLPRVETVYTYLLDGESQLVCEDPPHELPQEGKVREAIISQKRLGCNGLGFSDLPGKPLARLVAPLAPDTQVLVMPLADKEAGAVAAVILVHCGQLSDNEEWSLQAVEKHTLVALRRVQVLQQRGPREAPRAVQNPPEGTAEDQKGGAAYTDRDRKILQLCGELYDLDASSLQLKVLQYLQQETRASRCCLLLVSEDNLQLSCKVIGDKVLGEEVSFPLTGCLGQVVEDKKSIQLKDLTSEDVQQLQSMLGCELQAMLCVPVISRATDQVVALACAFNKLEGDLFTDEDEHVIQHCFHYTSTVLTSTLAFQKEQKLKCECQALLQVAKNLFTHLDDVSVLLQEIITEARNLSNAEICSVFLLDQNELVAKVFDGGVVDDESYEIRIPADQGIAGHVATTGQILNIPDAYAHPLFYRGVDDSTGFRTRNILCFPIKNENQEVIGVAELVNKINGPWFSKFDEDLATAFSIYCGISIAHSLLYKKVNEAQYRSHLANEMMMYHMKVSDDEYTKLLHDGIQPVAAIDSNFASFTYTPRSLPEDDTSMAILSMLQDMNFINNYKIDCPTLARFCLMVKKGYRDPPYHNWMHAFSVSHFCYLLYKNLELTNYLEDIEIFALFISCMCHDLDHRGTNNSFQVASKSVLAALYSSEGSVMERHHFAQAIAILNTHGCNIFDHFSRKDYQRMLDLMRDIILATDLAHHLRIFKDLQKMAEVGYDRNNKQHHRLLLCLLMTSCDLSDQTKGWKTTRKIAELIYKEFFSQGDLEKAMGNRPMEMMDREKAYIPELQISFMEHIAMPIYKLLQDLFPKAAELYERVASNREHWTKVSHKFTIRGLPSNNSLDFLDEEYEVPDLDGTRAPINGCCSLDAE

What is called Ki is a measure of affinity in units of concentration, obtained from inhibition or displacement. As to `CC(c1ccc(C(F)(F)F)cc1)n1nc(CO)c2c(=O)[nH]c(C3CC3)nc21` (single isomer, unassigned) [Example 300, (S)- or (R)-6-Cyclopropyl-3-(hydroxymethyl)-1-{1-[4-(trifluoromethyl)phenyl]ethyl}-1,5-dihydro-4H-pyrazolo[3,4-d]pyrimidin-4-one], the Ki came to 2.8 nM.
Turning to `Cc1nc2c(c(CO)nn2C(C)c2ccc(OC(F)F)cc2F)c(=O)[nH]1` (single isomer, unassigned) [Example 118, (R)- or (S)-1-(1-(4-(Difluoromethoxy)-2-fluorophenypethyl)-3-(hydroxymethyl)-6-methyl-1H-pyrazolo[3,4-d]pyrimidin-4(5H)-one], the Ki was determined as 323 nM.
For `CC(c1ccc(C(F)(F)F)cc1)n1nc(CO)c2c(=O)[nH]c(C3CCCO3)nc21` (single isomer, unassigned) [Example 314, (S,R)- or (R,R)- or (S,S)- or (R,S)-3-(Hydroxymethyl)-6-(tetrahydrofuran-2-yl)-1-(1-(4-(trifluoromethyl)-phenyl)ethyl)-1,5-dihydro-4H-pyrazolo[3,4-d]pyrimidin-4-one], the Ki amounted to 38 nM.
For the compound `COCc1nc2c(c(C(F)F)nn2C(C)c2ccc(C(F)(F)F)cc2)c(=O)[nH]1` (single isomer, unassigned) [Example 188, (S)- or (R)-3-(Difluoro-methyl)-6-(methoxymethyl)-1-{1-[4-(trifluoromethyl)phenyl]ethyl}-1,5-dihydro-4H-pyrazolo-[3,4-d]pyrimidin-4-one], the inhibitory constant (Ki) stood at 2.6 nM.
With `Cc1nc2c(c(OCC(F)(F)F)nn2C(C)c2ccc(C(F)(F)F)cc2)c(=O)[nH]1` (single isomer, unassigned) [Example 288], the Ki was 350 nM.
In the case of `CC(c1ccc(C(F)(F)F)cc1)n1nc(-c2nnco2)c2c(=O)[nH]c(CC3CCCC3)nc21` (single isomer, unassigned) [Example 343, (S) or (R)-6-(Cyclopentylmethyl)-3-(1,3,4-oxadiazol-2-yl)-1-(1-(4-(trifluoromethyl)phenyl)ethyl)-1,5-dihydro-4H-pyrazolo[3,4-d] pyrimidin-4-one], the Ki is 299 nM.
To `Cc1nc2c(c(C(=O)O)nn2[C@@H](C)c2ccc(C(F)(F)F)cc2)c(=O)[nH]1` [Example 323, (S)-6-Methyl-4-oxo-1-(1-(4-(trifluoromethyl)phenyl)ethyl)-4,5-dihydro-1H-pyrazolo[3,4-d]pyrimidine-3-carboxylic acid] belongs 798 nM; to `Cc1nc2c(c(CO)nn2C(C)c2ccc(C(F)(F)F)s2)c(=O)[nH]1` (single isomer, unassigned) [Example 155, (R)- or (S)-3-(Hydroxymethyl)-6-methyl-1-(1-(5-(trifluoromethyl)thiophen-2-yl)ethyl)-1H-pyrazolo[3,4-d]pyrimidin-4(5H)-one], roughly 1630 nM.
`Cc1nc2c(c(C(F)F)nn2C(C)c2ccc(C(F)(F)F)nc2)c(=O)[nH]1` (single isomer, unassigned) [Example 195]: the Ki is roughly 1670 nM.
Consider `Cc1nc2c(c(CO)nn2C(C)c2ccc(C(F)(F)F)s2)c(=O)[nH]1` (single isomer, unassigned) [Example 156, (S)- or (R)-3-(Hydroxymethyl)-6-methyl-1-(1-(5-(trifluoromethyl)thiophen-2-yl)ethyl)-1H-pyrazolo[3,4-d]pyrimidin-4(5H)-one], for which the Ki was determined as 8.5 nM.
On to `Cc1nc2c(c(CC3COC3)nn2C(C)c2ccc(C(F)(F)F)cc2)c(=O)[nH]1` (stereo not shown) [Example 289, 6-Methyl-3-(oxetan-3-ylmethyl)-1-(1-(4-(trifluoromethyl)phenyl)ethyl)-1H-pyrazolo[3,4-d]pyrimidin-4(5H)-one], for which the Ki was 388 nM.
Then `Cc1nc2c(c(CO)nn2C(C)c2ccc(C(C)(F)F)cc2)c(=O)[nH]1` (single isomer, unassigned) [Example 117, (S)- or (R)-1-(1-(4-(1,1-Difluoroethyl)phenyl)ethyl)-3-(hydroxymethyl)-6-methyl-1H-pyrazolo[3,4-d]pyrimidin-4(5H)-one], with 1.1 nM.
As for `CC(c1ccc(C(F)(F)F)cc1)n1nc(CO)c2c(=O)[nH]c(C3CCCO3)nc21` (single isomer, unassigned) [Example 311, (R,R)- or (S,S)- or (R,S)- or (S,R)-3-(Hydroxymethyl)-6-(tetrahydrofuran-2-yl)-1-(1-(4-(trifluoromethyl)-phenyl)ethyl)-1,5-dihydro-4H-pyrazolo[3,4-d]pyrimidin-4-one], the Ki is roughly 1210 nM.
For the compound `Cc1nc2c(c(CC(F)(F)F)nn2C(C)c2ccc(OC(F)(F)F)cc2)c(=O)[nH]1` (single isomer, unassigned) [Example 67, (S)- or (R)-6-Methyl-3-(2,2,2-trifluoroethyl)-1-(1-(4-(trifluoromethoxy)phenyl)ethyl)-1H-pyrazolo[3,4-d]pyrimidin-4(5H)-one], the Ki came to 6.7 nM.
For `Cc1nc2c(c(CO)nn2C(C)c2ccc(OC(F)(F)F)cc2F)c(=O)[nH]1` (single isomer, unassigned) [Example 104, (R)- or (S)-1-(1-(2-Fluoro-4-(trifluoromethoxy)phenyl)ethyl)-3-(hydroxymethyl)-6-methyl-1H-pyrazolo[3,4-d]pyrimidin-4(5H)-one], the inhibition constant Ki came to 162 nM.
To `Cc1nc2c(c(-c3ccn[nH]3)nn2C(C)c2ccc(C(F)(F)F)cc2)c(=O)[nH]1` (single isomer, unassigned) [Example 236] belongs 76 nM.
Then `Cc1nc2c(c(CC(F)(F)F)nn2C(c2ccc(C(F)(F)F)c(F)c2)C2(C)CC2)c(=O)[nH]1` (single isomer, unassigned) [Example 62, (R)- or (S)-1-((3-Fluoro-4-(trifluoromethyl)phenyl)(1-methylcyclopropyl)methyl)-6-methyl-3-(2,2,2-trifluoroethyl)-1H-pyrazolo[3,4-d]pyrimidin-4(5H)-one], with 1100 nM; and `Cc1nc2c(c(CO)nn2C(C)c2ccc(SC(F)(F)F)cc2)c(=O)[nH]1` (single isomer, unassigned) [Example 22, (R)- or (S)-3-(Hydroxymethyl)-6-methyl-1-(1-(4-(trifluoromethylthio)phenyl)ethyl)-1H-pyrazolo[3,4-d]pyrimidin-4(5H)-one], with 125 nM; and `Cc1nc2c(c(CO)nn2C(C)[C@H]2CC[C@H](C(F)(F)F)CC2)c(=O)[nH]1` (single isomer, unassigned) [Example 125, (S)- or (R)-3-(Hydroxymethyl)-6-methyl-1-((trans)-4-(trifluoro-methyl)cyclohexyl)ethyl)-1H-pyrazolo[3,4-d]pyrimidin-4(5H)-one], with 26 nM.
Then `Cc1nc2c(c(CC(F)(F)F)nn2C(C)c2ccc(C(F)(F)F)cc2)c(=O)[nH]1` (single isomer, unassigned) [Example 64, (R)- or (S)-6-Methyl-3-(2,2,2-trifluoroethyl)-1-(1-(4-(trifluoromethyl)phenyl)ethyl)-1H-pyrazolo[3,4-d]pyrimidin-4(5H)-one], with 274 nM.
As for `CC(c1ccc(S(F)(F)(F)(F)F)cc1)n1nc(CO)c2c(=O)[nH]c(C3CC3)nc21` (single isomer, unassigned) [Example 315, (R)- or (S)-6-Cyclopropyl-3-(hydroxymethyl)-1-{1-[4-(pentafluoro-sulfanyl)-phenyl]-ethyl}-1,5-dihydro-4H-pyrazolo[3,4-d]pyrimidin-4-one], the Ki was found to be 3.3 nM.
As for `Cc1nc2c(c(C(=O)N3CCOCC3)nn2C(C)c2ccc(C(F)(F)F)cc2)c(=O)[nH]1` (single isomer, unassigned) [Example 271, (S)- or (R)-6-Methyl-3-(morpholine-4-carbonyl)-1-(1-(4-(trifluoromethyl)phenyl)ethyl)-1H-pyrazolo[3,4-d]pyrimidin-4(5H)-one], the Ki was greater than 2960 nM.
